Several values for one entry are separate records, joined by “and”; a condition that tells them apart may be missing. Equal entries are not always repeated. Where two headings read alike, the source gives them in different places. Marks after values point to notes of the source that are not given here.
Assays:
[1] = molecular target: T1, LmTK (Leishmania major, UniProt Q4QC75); assay: TK activity, enzyme coupled spectrophotometric assay (substrate kinetics); format: biochemical; details: for kcat / Vmax / Km: recombinant full-length LmTK; for Vmax / Km: 25°C, pH 7.4; for Activity measurements at 10 mM substrate concentration (Vmax) / rate of phosphorylation by LmTK, fold lower than the Vmax value exhibited by TbTK: 10 mM substrate
Experimental: (§1) TK activity was measured spectrophotometrically using an enzyme coupled assay in buffer containing 50 mM Tris-HCl pH 7.4, 5 mM MgCl2, 50 mM KCl, 1 mM DTT, 0.5 mM ATP, 0.5 mM phosphoenolpyruvate (PEP), 0.2 mM NADH, 0.2 mM thymidine (dThd), 2 U pyruvate kinase (PK), 4 U lactate dehydrogenase (LDH) and variable amounts of enzyme. The reaction rate (AU/min) was registered as a decrease in absorbance at 340nm (NADH extinction coefficient) at 25°C at pH 7.4 using a multicell Hewlett-Packard 8452 diode array UV-VIS spectrophotometer. Diluted stocks of frozen full-length LmTK were freshly prepared in assay buffer before the measurements. […]

[2] = tested on: hTK1; set-up: method as in Munch-Peterson et al. [43]; details: 37°C; ref Munch-Peterson et al. [43]; cited from earlier work
[3] = molecular target: T1, LmTK; assay: TK activity, enzyme coupled spectrophotometric assay (substrate kinetics); format: biochemical; details: saturating dThd (25 μM)
[4] = tested on: Leishmania intracellular amastigote; set-up: method as in PMID 20922414; details: cited from earlier work
[5] = molecular target: T1, LmTK; assay: Inhibition assay of LmTK activity; format: biochemical; details: for IC50: 22.3 nM LmTK, pH 7.4
Experimental: TK activity was measured spectrophotometrically using an enzyme coupled assay in buffer containing 50 mM Tris-HCl pH 7.4, 5 mM MgCl2, 50 mM KCl, 1 mM DTT, 0.5 mM ATP, 0.5 mM phosphoenolpyruvate (PEP), 0.2 mM NADH, 0.2 mM thymidine (dThd), 2 U pyruvate kinase (PK), 4 U lactate dehydrogenase (LDH) and variable amounts of enzyme. The reaction rate (AU/min) was registered as a decrease in absorbance at 340nm (NADH extinction coefficient) at 25°C at pH 7.4 using a multicell Hewlett-Packard 8452 diode array UV-VIS spectrophotometer. Diluted stocks of frozen full-length LmTK were freshly prepared in assay buffer before the measurements.
The method consists in determining experimental values for the initial velocities, v, as described above, at increasing inhibitor concentrations, added before initiating the reaction. LmTK and dThd concentrations were 22.3 nM and 25 μM respectively. The concentration of inhibitor that inhibits the activity by 50% (IC50) was calculated.

[6] = molecular target: hTK1; set-up: method as in PMID 3457791; details: cited from earlier work
[7] = molecular target: T1, LmTK; assay: Inhibition assay of LmTK activity; format: biochemical
[8] = tested on: TK from rat liver; set-up: method as in PMID 4539354; details: similar conditions (equimolar dTTP and dThd); cited from earlier work
[9] = substrate: Cc1cn([C@H]2C[C@H](O)[C@@H](CO)O2)c(=O)[nH]c1=O; assay: TK activity, enzyme coupled spectrophotometric assay (substrate kinetics); format: biochemical, Leishmania major; details: other: recombinant full-length LmTK, 25°C, pH 7.4
Experimental: as §1

[10] = molecular target: the molecule itself; assay: AUC; sedimentation velocity, unliganded C-terminally His-tagged LmTK (dTTP dialysed away), 0.15 and 0.45 mg/mL, SEC buffer (10 mM Tris pH 8.0, 200 mM NaCl, 1 mM DTT), 42 000 rpm, 20°C; c(s) analysis with SEDFIT
[11] = molecular target: the molecule itself; assay: crystal structure; LmTK-dThd (with phosphate), 1.4 M Na/K PO4 pH 5.4, 1 mM dThd, 1 mM AppNHp, 3 mM MgCl2; space group P6(5)22, 2 protomers per asymmetric unit, 2.74 Å

Molecule: O=c1[nH]c(=O)n([C@H]2C[C@H](O)[C@@H](CO)O2)cc1Br [5Br-2’dU]
- kcat [1]: 3.47 s⁻¹
- Vmax [1]: 6.17 ± 0.19 µmol/min/mg
- Km ([1]; read-out: KM): 2 µM and 2.05 µM

Molecule: O=c1[nH]c(=O)n([C@H]2C[C@H](O)[C@@H](CO)O2)cc1CO [5CH2OH-2’dU]
- phosphorylation by LmTK (in words) [1]: also phosphorylated
- kcat [1]: 2.82 s⁻¹
- Vmax [1]: 5.01 ± 1.30 µmol/min/mg
- Km ([1]; read-out: KM): 96.7 ± 23.1 µM

Molecule: O=c1[nH]c(=O)n([C@H]2C[C@H](O)[C@@H](CO)O2)cc1F [5F-2’dU]
- kcat [1]: 4.66 s⁻¹
- Vmax [1]: 8.29 ± 1.12 µmol/min/mg
- Km ([1]; read-out: KM): 5.7 µM and 5.72 µM
- Km [2]: 2.2 µM
- Vmax [2]: 8.99 µmol/min/mg
- kcat [2]: 3.84 s⁻¹

Molecule: C[C@H]1O[C@@H](n2cc(F)c(=O)[nH]c2=O)[C@H](O)[C@@H]1O [5F-5’dU]
- phosphorylation by LmTK (in words) [1]: is not
- Activity measurements at 10 mM substrate concentration (Vmax) [1]: 0.00 ^a μmol∙min^-1∙mg^-1

Molecule: Nc1ncnc2c1ncn2[C@@H]1O[C@H](COP(=O)(O)OP(=O)(O)OP(=O)(O)O)[C@@H](O)[C@H]1O [ATP]
- Hill coefficient (positive cooperativity) [3]: 1.6
- K0.5 ([3]; fit to Hill equation): 58.6 ± 2.4 µM

Molecule: Cc1cn([C@H]2C[C@H](N=[N+]=[N-])[C@@H](CO)O2)c(=O)[nH]c1=O [AZT, 3’-azido-3’-deoxythymidine]
- kcat [1]: 1.97 s⁻¹
- Km [1]: 3 µM and 3.04 µM
- Vmax [1]: 3.52 ± 0.56 µmol/min/mg
- Km [2]: 0.6 µM
- Vmax [2]: 4.96 µmol/min/mg
- kcat [2]: 2.12 s⁻¹
- Leishmania intracellular amastigote growth (in words) [4]: inhibit Leishmania intracellular amastigote growth

Molecule: Nc1ncnc2c1ncn2[C@@H]1O[C@H](CO)[C@@H](O)[C@H]1O [Ado, adenosine]
- Activity measurements at 10 mM substrate concentration (Vmax) [1]: 0.00 ^a μmol∙min^-1∙mg^-1
- inhibition of LmTK ([5]; tested at 5 mM): no inhibition

Molecule: Cc1cn([C@H]2C[C@H](O)[C@@H](COP(=O)(O)OP(=O)(O)OP(=O)(O)OP(=O)(O)OP(=O)(O)OC[C@H]3O[C@@H](n4cnc5c(N)ncnc54)[C@H](O)[C@@H]3O)O2)c(=O)[nH]c1=O [Ap5dT, P1-(5-adenosyl)-P5-(5-thymidyl) pentaphosphate]
- Ki [6]: 0.12 µM
- IC50 ([5]; 25 μM dThd, 0.5 mM ATP): 1.1 µM

Molecule: Nc1ccn([C@@H]2O[C@H](CO)[C@@H](O)[C@H]2O)c(=O)n1 [Cyd]
- Activity measurements at 10 mM substrate concentration (Vmax) [1]: 0.00 ^a μmol∙min^-1∙mg^-1

Molecule: Nc1nc2c(ncn2[C@@H]2O[C@H](CO)[C@@H](O)[C@H]2O)c(=O)[nH]1 [Guo]
- Activity measurements at 10 mM substrate concentration (Vmax) [1]: 0.00 ^a μmol∙min^-1∙mg^-1

Molecule: O=c1ccn([C@@H]2O[C@H](CO)[C@@H](O)[C@H]2O)c(=O)[nH]1 [Urd]
- kcat [1]: 0.44 s⁻¹
- Vmax [1]: 0.79 ± 0.12 µmol/min/mg
- Km ([1]; read-out: KM): 1460 ± 158 µM

Molecule: Nc1ncnc2c1ncn2C1CC(O)C(CO)O1 (stereo not drawn) [dAdo]
- Activity measurements at 10 mM substrate concentration (Vmax) [1]: 0.01 ^a μmol∙min^-1∙mg^-1
- rate of phosphorylation by LmTK, fold lower than the Vmax value exhibited by TbTK [1]: 6 fold

Molecule: Nc1ccn([C@H]2C[C@H](O)[C@@H](COP(=O)(O)OP(=O)(O)OP(=O)(O)O)O2)c(=O)n1 [dCTP]
- IC50 ([5]; 25 μM dThd, 0.5 mM ATP): 1250 µM

Molecule: Nc1ccn([C@H]2C[C@H](O)[C@@H](CO)O2)c(=O)n1 [dCyd]
- Activity measurements at 10 mM substrate concentration (Vmax) [1]: 0.07 ^a μmol∙min^-1∙mg^-1

Molecule: Nc1nc2c(ncn2[C@H]2C[C@H](O)[C@@H](COP(=O)(O)OP(=O)(O)OP(=O)(O)O)O2)c(=O)[nH]1 [dGTP]
- IC50 ([5]; 25 μM dThd, 0.5 mM ATP): 549 µM

Molecule: Nc1nc2c(ncn2[C@H]2C[C@H](O)[C@@H](CO)O2)c(=O)[nH]1 [dGuo]
- Activity measurements at 10 mM substrate concentration (Vmax) [1]: 0.04 ^a μmol∙min^-1∙mg^-1
- rate of phosphorylation by LmTK, fold lower than the Vmax value exhibited by TbTK [1]: 10 fold

Molecule: O=c1[nH]cnc2c1ncn2[C@H]1C[C@H](O)[C@@H](CO)O1 [dIno]
- Activity measurements at 10 mM substrate concentration (Vmax) [1]: 0.04 ^a μmol∙min^-1∙mg^-1
- rate of phosphorylation by LmTK, fold lower than the Vmax value exhibited by TbTK [1]: 23 fold

Molecule: Cc1cn([C@H]2C[C@H](O)[C@@H](COP(=O)(O)O)O2)c(=O)[nH]c1=O [dTMP, thymidine monophosphate]
- IC50 ([5]; 25 μM dThd, 0.5 mM ATP): 165 µM

Molecule: Cc1cn([C@H]2C[C@H](O)[C@@H](COP(=O)(O)OP(=O)(O)OP(=O)(O)O)O2)c(=O)[nH]c1=O [dTTP, 2'-deoxythymidine triphosphate]
- fold increase in the K0.5 value for ATP compared to absence of dTTP ([7]; 3.5 μM dTTP, ATP 50–500 μM, 25 μM dThd): 5 fold
- enzyme inhibition ([7]; 0.2 mM dTTP, equimolar 0.2 mM dThd, 0.5 mM ATP): 98%
- inhibition [8]: 87%
- Hill coefficient (h) of inhibition ([5]; 25 μM dThd, 0.5 mM ATP): 1.6
- IC50 ([5]; 25 μM dThd, 0.5 mM ATP): 3.8 ± 0.07 µM

Molecule: Cc1cn([C@H]2C[C@H](O)[C@@H](CO)O2)c(=O)[nH]c1=O [dThd, 2’-deoxythymidine]
- KM fold lower than that reported for TbTK ([1]; comparison with TbTK ref 35): ~ 7 fold

Molecule: O=c1ccn([C@H]2C[C@H](O)[C@@H](COP(=O)(O)OP(=O)(O)OP(=O)(O)O)O2)c(=O)[nH]1 [dUTP]
- IC50 ([5]; 25 μM dThd, 0.5 mM ATP): 187 µM

Molecule: O=c1ccn([C@H]2C[C@H](O)[C@@H](CO)O2)c(=O)[nH]1 [dUrd]
- KM fold higher than that for dThd [1]: approximately 10 fold
- kcat [1]: 3.06 s⁻¹
- Vmax [1]: 5.45 ± 0.77 µmol/min/mg
- Km ([1]; read-out: KM): 11.1 ± 2.7 µM
- Km [2]: 9 µM
- Vmax [2]: 11.87 µmol/min/mg
- kcat [2]: 5.07 s⁻¹

B1: LmTK (Leishmania major) (protein)
chain: FRGRIELIIGPMFAGKTTELMRRVKREIHARRSCFVIKYSKDTRYDEHNVASHDQLMLRAQAAVSQLTEVRDTWKRFDVLAIDEGQFFSDLVDFCNTAADAGKVVMVSALDGDYRRKPFGQICELVPYCEAVDKLTAVCMMCHEQPACFTRRTVNVEQQELIGGADMYIATCRECYSKQQLPSIEEMRTQRMAIKEVEKRYLGLSDKRATASPQTPEKPAGGWCTKAGVATLPTMVKEGAASSGASAGMKSGRGLCEMQAFTTETPKYQRVEPACTASAASSE
- Km [9]: 1.10 ± 0.33 µM
- Vmax [9]: 4.66 µmol/min/mg
- kcat [9]: 2.62 s⁻¹
- kcat/Km [9]: 2.38e+06 M⁻¹ s⁻¹

B2: C-terminally His-tagged truncated L. major thymidine kinase (LmTK), amino acids 2-185 (enzyme, L. major strain Friedlin, UniProt Q4QC75 2-185, looked up)
chain: FRGRIELIIGPMFAGKTTELMRRVKREIHARRSCFVIKYSKDTRYDEHNVASHDQLMLRAQAAVSQLTEVRDTWKRFDVLAIDEGQFFSDLVDFCNTAADAGKVVMVSALDGDYRRKPFGQICELVPYCEAVDKLTAVCMMCHEQPACFTRRTVNVEQQELIGGADMYIATCRECYSKQQLPSI
notes: Thymidine kinase of Leishmania major strain Friedlin (GeneDB LmjF.21.1210), C-terminally truncated version spanning amino acids 2-185; Non-cleavable C-terminal His tag; Stabilised with dTTP/MgCl2 or dThd/AppNHp/MgCl2; also called C-terminal histagged LmTK; LmTK-dTTP; source: Sf9 insect cells (baculovirus), purified (HisTrap, Superdex 200 SEC); not shown: His6, C-terminal, kept
- stoichiometry N [10]: 4

B3: Truncated L. major thymidine kinase (LmTK), amino acids 2-185, as crystallised with dThd/AppNHp and with AP5dT (enzyme, L. major strain Friedlin, UniProt Q4QC75 2-185, looked up)
chain: B2 chain
notes: Thymidine kinase of Leishmania major strain Friedlin (GeneDB LmjF.21.1210), C-terminally truncated version spanning amino acids 2-185; both preparations (each with dThd, AppNHp, MgCl2) were used for crystallization screening; also called LmTK-dThd; LmTK-dThd-AppNHp; source: Sf9 insect cells (baculovirus), purified (HisTrap, Superdex 200 SEC)
- stoichiometry N [11]: 4
